Results taken from patent US6869589B1, “Cryptate compounds and methods for diagnosis and therapy” (Australian Nuclear Science & Technology Organization, priority 1999, dated 2005).

Experiment: Biodistribution of ^64Cu complexes in balb/c mice
Details: for Clearance of the complex (biodistribution, in words): if the ligand detaches from the antibody
Description: The biodistribution of the ^64Cu complexes of compounds (1), (3) and (4) (0.10 ml intravenous injection) were evaluated in balb/c mice (5 animals per time point) at 3, 5, 10, 15, 20 and 30 minute time intervals. Biodistribution studies were performed in duplicate.

For NC12CNCCNCC(N)(CNCCNC1)CNCCNC2 [compound (1)], the “Clearance of the complex (biodistribution, in words)” value was “clear rapidly from the system”.

For NC12C[N]3CC[N]4CC5(NCc6ccc([N+](=O)[O-])cc6)C[N]6CC[N](C1)[Cu]3461[N](CC[N]1C5)C2 [compound (2)], the “Clearance of the complex (biodistribution, in words)” value was “clear rapidly from the system”.

For Nc1ccc(CNC23CNCCNCC(N)(CNCCNC2)CNCCNC3)cc1.[64Cu+2] [^64Cu-labelled compound (3)], the “% injected dose per gram” value (BLADDER, 3 MIN) was 11.36 % INJECTED DOSE PER GRAM, the “% injected dose per gram” value (BLADDER, 5 MIN) was 12.31 % INJECTED DOSE PER GRAM and the “% injected dose per gram” value (BLADDER, 10 MIN) was 14.36 % INJECTED DOSE PER GRAM. The “% injected dose per gram” value (BLADDER, 15 MIN) was 10.54 % INJECTED DOSE PER GRAM, the “% injected dose per gram” value (BLADDER, 20 MIN) was 13.45 % INJECTED DOSE PER GRAM and the “% injected dose per gram” value (BLADDER, 30 MIN) was 2.74 % INJECTED DOSE PER GRAM. For the same compound, the “% injected dose per gram” value (BLOOD, 3 MIN) was 7.74 % INJECTED DOSE PER GRAM, the “% injected dose per gram” value (BLOOD, 5 MIN) was 8.19 % INJECTED DOSE PER GRAM and the “% injected dose per gram” value (BLOOD, 10 MIN) was 5.23 % INJECTED DOSE PER GRAM. For the same compound, the “% injected dose per gram” value (BLOOD, 15 MIN) was 4.39 % INJECTED DOSE PER GRAM, the “% injected dose per gram” value (BLOOD, 20 MIN) was 3.05 % INJECTED DOSE PER GRAM and the “% injected dose per gram” value (BLOOD, 30 MIN) was 1.25 % INJECTED DOSE PER GRAM. The “% injected dose per gram” value (BONE, 3 MIN) was 1.68 % INJECTED DOSE PER GRAM, the “% injected dose per gram” value (BONE, 5 MIN) was 2.11 % INJECTED DOSE PER GRAM and the “% injected dose per gram” value (BONE, 10 MIN) was 1.29 % INJECTED DOSE PER GRAM. The “% injected dose per gram” value (BONE, 15 MIN) was 1.36 % INJECTED DOSE PER GRAM, the “% injected dose per gram” value (BONE, 20 MIN) was 1.11 % INJECTED DOSE PER GRAM and the “% injected dose per gram” value (BONE, 30 MIN) was 0.72 % INJECTED DOSE PER GRAM. The “% injected dose per gram” value (GIT, 3 MIN) was 2.66 % INJECTED DOSE PER GRAM, the “% injected dose per gram” value (GIT, 5 MIN) was 2.88 % INJECTED DOSE PER GRAM and the “% injected dose per gram” value (GIT, 10 MIN) was 1.80 % INJECTED DOSE PER GRAM. For the same compound, the “% injected dose per gram” value (GIT, 15 MIN) was 2.92 % INJECTED DOSE PER GRAM, the “% injected dose per gram” value (GIT, 20 MIN) was 1.05 % INJECTED DOSE PER GRAM and the “% injected dose per gram” value (GIT, 30 MIN) was 0.55 % INJECTED DOSE PER GRAM. For the same compound, the “% injected dose per gram” value (HEART, 3 MIN) was 2.79 % INJECTED DOSE PER GRAM, the “% injected dose per gram” value (HEART, 5 MIN) was 3.00 % INJECTED DOSE PER GRAM and the “% injected dose per gram” value (HEART, 10 MIN) was 2.03 % INJECTED DOSE PER GRAM. The “% injected dose per gram” value (HEART, 15 MIN) was 1.56 % INJECTED DOSE PER GRAM, the “% injected dose per gram” value (HEART, 20 MIN) was 1.24 % INJECTED DOSE PER GRAM and the “% injected dose per gram” value (HEART, 30 MIN) was 0.50 % INJECTED DOSE PER GRAM. For the same compound, the “% injected dose per gram” value (KIDNEY, 3 MIN) was 22.41 % INJECTED DOSE PER GRAM, the “% injected dose per gram” value (KIDNEY, 5 MIN) was 18.99 % INJECTED DOSE PER GRAM and the “% injected dose per gram” value (KIDNEY, 10 MIN) was 13.41 % INJECTED DOSE PER GRAM. For the same compound, the “% injected dose per gram” value (KIDNEY, 15 MIN) was 10.26 % INJECTED DOSE PER GRAM, the “% injected dose per gram” value (KIDNEY, 20 MIN) was 9.98 % INJECTED DOSE PER GRAM and the “% injected dose per gram” value (KIDNEY, 30 MIN) was 5.95 % INJECTED DOSE PER GRAM. For the same compound, the “% injected dose per gram” value (LIVER, 3 MIN) was 1.94 % INJECTED DOSE PER GRAM, the “% injected dose per gram” value (LIVER, 5 MIN) was 2.00 % INJECTED DOSE PER GRAM and the “% injected dose per gram” value (LIVER, 10 MIN) was 1.46 % INJECTED DOSE PER GRAM. The “% injected dose per gram” value (LIVER, 15 MIN) was 1.24 % INJECTED DOSE PER GRAM, the “% injected dose per gram” value (LIVER, 20 MIN) was 1.04 % INJECTED DOSE PER GRAM and the “% injected dose per gram” value (LIVER, 30 MIN) was 0.72 % INJECTED DOSE PER GRAM. The “% injected dose per gram” value (LUNGS, 3 MIN) was 5.48 % INJECTED DOSE PER GRAM, the “% injected dose per gram” value (LUNGS, 5 MIN) was 5.74 % INJECTED DOSE PER GRAM and the “% injected dose per gram” value (LUNGS, 10 MIN) was 4.00 % INJECTED DOSE PER GRAM. The “% injected dose per gram” value (LUNGS, 15 MIN) was 3.25 % INJECTED DOSE PER GRAM, the “% injected dose per gram” value (LUNGS, 20 MIN) was 2.59 % INJECTED DOSE PER GRAM and the “% injected dose per gram” value (LUNGS, 30 MIN) was 1.13 % INJECTED DOSE PER GRAM. For the same compound, the “% injected dose per gram” value (MUSCLE, 3 MIN) was 1.98 % INJECTED DOSE PER GRAM, the “% injected dose per gram” value (MUSCLE, 5 MIN) was 3.17 % INJECTED DOSE PER GRAM and the “% injected dose per gram” value (MUSCLE, 10 MIN) was 1.73 % INJECTED DOSE PER GRAM. The “% injected dose per gram” value (MUSCLE, 15 MIN) was 2.40 % INJECTED DOSE PER GRAM, the “% injected dose per gram” value (MUSCLE, 20 MIN) was 2.13 % INJECTED DOSE PER GRAM and the “% injected dose per gram” value (MUSCLE, 30 MIN) was 0.50 % INJECTED DOSE PER GRAM. For the same compound, the “% injected dose per gram” value (SKIN, 3 MIN) was 5.63 % INJECTED DOSE PER GRAM, the “% injected dose per gram” value (SKIN, 5 MIN) was 6.18 % INJECTED DOSE PER GRAM and the “% injected dose per gram” value (SKIN, 10 MIN) was 4.86 % INJECTED DOSE PER GRAM. The “% injected dose per gram” value (SKIN, 15 MIN) was 4.49 % INJECTED DOSE PER GRAM, the “% injected dose per gram” value (SKIN, 20 MIN) was 3.41 % INJECTED DOSE PER GRAM and the “% injected dose per gram” value (SKIN, 30 MIN) was 1.45 % INJECTED DOSE PER GRAM. For the same compound, the “% injected dose per gram” value (SPLEEN, 3 MIN) was 1.96 % INJECTED DOSE PER GRAM, the “% injected dose per gram” value (SPLEEN, 5 MIN) was 2.01 % INJECTED DOSE PER GRAM and the “% injected dose per gram” value (SPLEEN, 10 MIN) was 1.26 % INJECTED DOSE PER GRAM. The “% injected dose per gram” value (SPLEEN, 15 MIN) was 1.09 % INJECTED DOSE PER GRAM, the “% injected dose per gram” value (SPLEEN, 20 MIN) was 0.93 % INJECTED DOSE PER GRAM and the “% injected dose per gram” value (SPLEEN, 30 MIN) was 0.39 % INJECTED DOSE PER GRAM. For the same compound, the “% injected dose per gram” value (STOMACH, 3 MIN) was 2.69 % INJECTED DOSE PER GRAM, the “% injected dose per gram” value (STOMACH, 5 MIN) was 3.11 % INJECTED DOSE PER GRAM and the “% injected dose per gram” value (STOMACH, 10 MIN) was 2.35 % INJECTED DOSE PER GRAM. For the same compound, the “% injected dose per gram” value (STOMACH, 15 MIN) was 1.91 % INJECTED DOSE PER GRAM, the “% injected dose per gram” value (STOMACH, 20 MIN) was 1.54 % INJECTED DOSE PER GRAM and the “% injected dose per gram” value (STOMACH, 30 MIN) was 0.60 % INJECTED DOSE PER GRAM.
